Series [1] is described as follows: Measurement method 1-1: in vitro skin-pore absorption into hair follicles and skin tissue. The series is classed as in vitro ADME, miniature pig. The text has this: In measurement method 1-1, the skin of a model animal or the skin reconstructed from skin cells may be employed as a skin model. The model animal from which the skin is taken is not particularly limited, and pig, human, cattle, mouse, or rat are all potential donors. In measurement method 1-1, the skin of a hairy animal is usually employed in order to evaluate the penetrability of a drug through skin pores into hair follicles. Therefore, a mutated hairless animal is usually unsuitable for the model animal. […] Therefore, other than human, pig is preferably employed as a model animal.
The skin is not particularly limited, so long as the skin satisfies the above condition. For example, as described below in the Example, a skin model may be fixed onto a collagen gel.
The conditions for the application of the substance may be arbitrarily determined in accordance with the type of the substance or the object. Usually, the skin to which the substance is applied is incubated at about 37° C. (near the temperature of the human body) over a predetermined time period. The incubation time varies with the intended product form of the substance.
The portion at which the delivery amount of the substance is measured is limited to the region corresponding to the dermis of the skin, since in the region corresponding to the stratum corneum or epidermis of the skin, the hair follicle may be contaminated with epidermal tissue debris or excretions from the sebaceous glands, and thus the exact delivery amount of the substance is difficult to measure.
The method for measuring the delivery amount of the substance is not particularly limited. For example, liquid chromatography (including high-performance liquid chromatography), a fluorescent antibody technique using a fluorescence-labeled antibody, mass spectrometry, or a method using a radioisotope may be employed. Of these, liquid chromatography is preferable, in consideration of convenience.
In the evaluation test, 0.5% pantothenyl ethylether (90% ethanol product) was employed as a substance to be tested, and the skin of a miniature pig (Yucatan Micropig Skin Set: product of Charles River) was employed as a skin model.
The test sample (20 μl) was applied onto the skin sample comprising skin pores 14. The substance was applied onto a region (diameter: 1.5 cm) of the sample; i.e., within an assay ring to which silicon grease was applied. The resultant skin sample 10 was allowed to stand at 37° C. for 16 hours. After having being washed, the sample 10 was separated into the stratum corneum 11, the epidermis 12, and the dermis 13. Subsequently, hair follicles 15 were removed from the dermis 13, and the amount of pantothenyl ethylether contained in the follicles was measured, as a delivery amount per unit weight of the hair follicle, by means of liquid chromatography (NANOSPACE (product of Shiseido Co., Ltd.), eluent: (CH3CN:H2O=3:7), detection wavelength: 210 nm).
The skin sample 10 of the miniature pig was derived from the upper back and lower back (n=3).

The conditions of series [2]: in vivo.
Experimental: (§1) (2) an in vivo quantification method (hereinafter referred to as “measurement method 1-2”) in which the amount of a substance (e.g., a drug) which is penetrated into the hair follicle is determined by applying the substance to the human scalp, removing the hair follicle from the scalp, and measuring the concentration of the substance which is delivered to the hair follicle.
(§2) In measurement method 1-2, a method for the application of a substance such as a drug to the human scalp may be arbitrarily determined in accordance with the characteristics or the intended product form of the substance.
(§3) After the substance is applied to a person participating in the test, several hair strands from the person are removed, and the thus-obtained hair follicles may be stored as hair shafts and/or outer root sheaths. The amount of the substance which is delivered to the subcutaneous portion of the hair shaft and/or the outer root sheath is measured, and the thus-obtained delivery amount of the substance may be employed as an index of the skin-pore absorbability of the substance.
(§4) The delivery amount of the substance may be measured in a manner similar to that of measurement method 1-1.
(§5) Thirty male panelists were enrolled in the test. […] Each of the test samples (0.5 ml for each) was applied to the scalp (area: 1 cm^2) of each male panelist, and then the scalp was left for 16 hours. […]
Series [3] can be described thus: Measurement method 2: sebum transferability through keratinized silicone film into artificial sebum (Franz cell kit). The conditions noted are these: 5% isostearyl alcohol, 2% minoxidil composition, 20 μl, 37° C., 24 hours, FIG. 12. The series is classed as in vitro ADME. The text has this:
The present invention also provides a method for the measurement of skin absorbability of a substance (hereinafter the method will be referred to as “measurement method 2”), which comprises bringing a substance into contact with a first surface of a film that mimics the skin surface layer, a second surface of the film being brought into contact with artificial sebum; and using the degree of transfer of the substance to the artificial sebum as an index, to thereby evaluate the sebum transferability of the substance.
The sebum transferability of a substance may be evaluated through the following procedure: the substance is applied to the stratum corneum side of the thin film, the opposite side of the stratum corneum side being brought into contact with the artificial sebum; the degree of transfer of the substance to the artificial sebum, for example, the amount of the substance transferred to the sebum per unit time, i.e., the amount of the substance contained in the sebum is measured; and the amount of the substance in the sebum is employed as an index, to thereby evaluate the sebum transferability of the substance.
1. […]
The test was carried out under the aforementioned conditions. […] The degree of transfer of minoxidil to the artificial sebum was evaluated on the basis of the concentration of minoxidil contained in the sebum after the elapse of a specified time period. […]

The nature of series [4]: Measurement method 1-2: in vivo skin-pore absorption, human scalp hair follicles. The conditions noted are these: 5% isostearyl alcohol, 1% pantothenyl ethylether, 0.5 ml on scalp, 16 hours, vs control, FIG. 8.
Experimental: as §1, §2, §3, §4, §5

Like-named read-outs stand apart in the source and are kept apart here.

For `CC12CCC(CC1=O)C2(C)C` (stereo not shown) [camphor], the “skin-pore absorption of pantothenyl ethylether” value in series [1] (1% terpene refreshing agent, 0.5% pantothenyl ethylether, vs control, FIGS. 11A and 11B) was “accelerates”; in series [2] it was “accelerates”.

As to `CC(C)CCCCCCCCCCCCCCCO` [isostearyl alcohol], the “skin-pore absorption of minoxidil (concentration delivered to the hair follicles)” value in series [1] (5% isostearyl alcohol compared with 5% amine oxide composition, 0.5% minoxidil, FIG. 9B) is recorded as “accelerates”. Besides, the “skin-pore absorption of β-glycyrrhetinic acid (concentration delivered to the hair follicles)” value in series [1] (5% isostearyl alcohol compared with 5% amine oxide composition, 0.5% β-glycyrrhetinic acid, FIG. 9A) is “accelerates”. Further, the “concentration of pantothenyl ethylether delivered to hair follicles” value in series [1] (5% isostearyl alcohol composition vs control, 0.5% pantothenyl ethylether, 20 μl, 37° C., 16 hours, FIG. 4) is “increases significantly”. The “concentration of pantothenyl ethylether delivered to the stratum corneum” value in series [1] (5% isostearyl alcohol composition vs control, FIG. 5A) is recorded as “decreased”. The “concentration of pantothenyl ethylether delivered to the epidermis” value in series [1] (5% isostearyl alcohol composition vs control, FIG. 5B) is on record as “decreased”. For the same molecule, the “concentration of pantothenyl ethylether delivered to the dermis” value in series [1] (5% isostearyl alcohol composition vs control, FIG. 5C) was “slightly increased”. Moreover, the “sebum transferability of minoxidil (concentration of minoxidil in the artificial sebum)” value in series [3] was “enhances”. Besides, the “concentration of pantothenyl ethylether delivered to the hair follicles (hair shafts and outer root sheaths)” value in series [4] is listed as “increases”.
